Assay results published in article PMC6769917, “Glycan Binding Profiling of Jacalin-Related Lectins from the Pteria Penguin Pearl Shell” (International Journal of Molecular Sciences, 2019).

Target: T1, PPL4 (Pteria penguin, UniProt B6F0T8+B6F0T9)
T1 construct: gene PPL4-a; native, purified from mantle secretory fluid; mature 148 residues per subunit, 16 kDa; disulfide-linked heterodimer 32 kDa (head-to-head, N-terminal bond); N-termini […]; (alpha), […]; (beta)
Experiment: hemagglutination inhibition, rabbit erythrocytes, purified lectin
Type: cell-based
Details: 0.15 M NaCl; hemagglutination titer 2^−3; 2% rabbit erythrocytes
From the text: hemagglutination inhibition, rabbit erythrocytes, purified lectin on PPL4

T1 sequence (B6F0T8 entry or part of it): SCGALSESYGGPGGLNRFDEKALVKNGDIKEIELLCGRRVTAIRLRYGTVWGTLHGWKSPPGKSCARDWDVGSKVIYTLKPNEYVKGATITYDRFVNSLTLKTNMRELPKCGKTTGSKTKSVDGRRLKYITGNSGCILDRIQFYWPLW
T1 sequence (B6F0T9 entry or part of it): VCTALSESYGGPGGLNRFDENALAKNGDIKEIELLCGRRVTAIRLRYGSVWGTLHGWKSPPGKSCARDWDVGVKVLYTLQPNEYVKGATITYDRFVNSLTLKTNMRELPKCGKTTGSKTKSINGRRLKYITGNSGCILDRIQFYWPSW

Compound `OCC1(O)OC[C@@H](O)[C@@H](O)[C@@H]1O` (stereo partly drawn) [D-Fructose] has a PPL3 of 50 mM.

`OC[C@H]1O[C@H](OC[C@H]2OC(O)[C@H](O)[C@@H](O)[C@@H]2O)[C@H](O)[C@@H](O)[C@@H]1O` (some centres unmarked) [Isomaltose] was tested, and the PPL4 was > 200 mM.

`OC[C@H]1O[C@H](O[C@H]2C(O)O[C@H](CO)[C@@H](O)[C@@H]2O)[C@H](O)[C@@H](O)[C@@H]1O` (some centres unmarked) [Kojibiose] showed a PPL4 of 100 mM.

For `CC(=O)N[C@H]1C(O)O[C@H](CO)[C@@H](O)[C@@H]1O` (stereo partly drawn) [N-Acetyl-D-glucosamine], the PPL4 was 6.25 mM.

Compound `OC[C@H]1O[C@H](O[C@H]2O[C@H](CO)[C@@H](O)[C@H](O)[C@H]2O)[C@H](O)[C@@H](O)[C@@H]1O` [Trehalose] has a PPL4 of 100 mM.
